{"source": "patent US11542304B2", "about": "“Multimeric bicyclic peptide ligands” (BicycleTx Limited, priority 2018, dated 2023)", "target": "CD137 (Homo sapiens, UniProt Q07011)", "sequence (Q07011 24-255)": "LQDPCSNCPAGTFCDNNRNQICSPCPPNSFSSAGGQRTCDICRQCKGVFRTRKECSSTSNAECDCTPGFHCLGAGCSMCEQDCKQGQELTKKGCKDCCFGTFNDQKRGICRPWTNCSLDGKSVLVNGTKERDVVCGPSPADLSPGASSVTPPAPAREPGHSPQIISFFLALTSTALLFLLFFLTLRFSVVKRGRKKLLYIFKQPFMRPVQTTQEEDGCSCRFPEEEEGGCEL", "assay": "CD137 Promega reporter cell activity assay (NF-κB luciferase in Jurkat cells)", "conditions": "for Average Fold EC50 Improvement relative to CD137L: Average EC50 for CD137L = 14.2 nM; for Average Relative Fold Induction relative to CD137L: Average fold induction for CD137L = 4.0", "note": "Starred links: 1 amine or outer side, 2 acyl side, 3 side chain; linkers in the order of their positions; H or OH if unused. Positions of bridges follow the written chain, without caps; N, C: chain ends. Non-standard residues stand in square brackets, D forms with d. Chains are numbered I, II in the order given. X2 = O=C(CCOCCN(CCOCCC(=O)NCCOCCOCCOCCOCCOCCOCCOCCOCCOCCOCCOCCOCCOCCOCCOCCOCCOCCOCCOCCOCCOCCOCCOCCn1nnc2c1CCC1C(CC2)C1COC(=O)[*:2])CCOCCC(=O)NCCOCCOCCOCCOCCOCCOCCOCCOCCOCCOCCOCCOCCOCCOCCOCCOCCOCCOCCOCCOCCOCCOCCOCCn1nnc2c1CCC1C(CC2)C1COC(=O)[*:3])NCCOCCOCCOCCOCCOCCOCCOCCOCCOCCOCCOCCOCCOCCOCCOCCOCCOCCOCCOCCOCCOCCOCCOCCn1nnc2c1CCC1C(CC2)C1COC(=O)[*:1]; TATA = O=C(CC[*:1])N1CN(C(=O)CC[*:2])CN(C(=O)CC[*:3])C1; Nle = CCCC[C@H](N)C(=O)O", "protocol": "CD137 binding multimers were evaluated for CD137 using a Reporter cell activity assay that uses NF-κB luciferase luminescence as a read-out of CD137 activation in Jurkat cells. […] Samples were diluted at concentration expected to give the maximum fold induction and then titrated down in 1/3 dilution series or 1/10 dilution series in a sterile 96 well-plate. […] 50 μl cells were added per well to white cell culture plates.\nCells were co-incubated together with agonists for 6 h at 37° C., 5% CO2. After 6 h Bio-Glo™ was thawed and the assay developed at room-temperature. 75 ul Bio-Glo™ was added per well and incubated for 5-10 min. Luciferase signal was read on a Pherastar plate-reader using MARS program. Data was analysed by transforming the data to x=log (X), then plotting log (agonist) vs. response variable slope (4 parameters) to calculate EC50 values.", "data": [{"compound": "CCCC[C@@H]1NC(=O)[C@H](Cc2ccc(O)cc2)NC(=O)[C@@H]2CCCN2C(=O)[C@H](CC(=O)O)NC(=O)[C@H](C)NC(=O)[C@H](Cc2ccccc2)NC(=O)[C@@H]2CSCCC(=O)N3CN(CN(C3)C(=O)CCSC[C@@H](C(=O)N[C@@H](C)C(N)=O)NC1=O)C(=O)CCSC[C@H](NC(=O)[C@H](C)NC(=O)OCC1C3CCc4nnn(CCOCCOCCOCCOCCOCCOCCOCCOCCOCCOCCOCCOCCOCCOCCOCCOCCOCCOCCOCCOCCOCCOCCOCCNC(=O)CCOCC(COCCC(=O)NCCOCCOCCOCCOCCOCCOCCOCCOCCOCCOCCOCCOCCOCCOCCOCCOCCOCCOCCOCCOCCOCCOCCOCCn5nnc6c5CCC5C(CC6)C5COC(=O)N[C@@H](C)C(=O)N[C@H]5CSCCC(=O)N6CN7CN(C6)C(=O)CCSC[C@H](NC(=O)[C@H](Cc6ccc(O)cc6)NC(=O)[C@H](CCC(N)=O)NC(=O)CNC(=O)[C@H](CCC(=O)O)NC(=O)[C@H](CCC(=O)O)NC(=O)[C@H]([C@@H](C)CC)NC5=O)C(=O)N[C@@H](Cc5ccccc5)C(=O)N[C@@H](C)C(=O)N[C@@H](CC(=O)O)C(=O)N5CCC[C@H]5C(=O)N[C@@H](Cc5ccc(O)cc5)C(=O)N[C@@H](CCCC)C(=O)N[C@H](C(=O)N[C@@H](C)C(N)=O)CSCCC7=O)(COCCC(=O)NCCOCCOCCOCCOCCOCCOCCOCCOCCOCCOCCOCCOCCOCCOCCOCCOCCOCCOCCOCCOCCOCCOCCOCCn5nnc6c5CCC5C(CC6)C5COC(=O)N[C@@H](C)C(=O)N[C@H]5CSCCC(=O)N6CN7CN(C6)C(=O)CCSC[C@H](NC(=O)[C@H](Cc6ccc(O)cc6)NC(=O)[C@H](CCC(N)=O)NC(=O)CNC(=O)[C@H](CCC(=O)O)NC(=O)[C@H](CCC(=O)O)NC(=O)[C@H]([C@@H](C)CC)NC5=O)C(=O)N[C@@H](Cc5ccccc5)C(=O)N[C@@H](C)C(=O)N[C@@H](CC(=O)O)C(=O)N5CCC[C@H]5C(=O)N[C@@H](Cc5ccc(O)cc5)C(=O)N[C@@H](CCCC)C(=O)N[C@H](C(=O)N[C@@H](C)C(N)=O)CSCCC7=O)COCCC(=O)NCCOCCOCCOCCOCCOCCOCCOCCOCCOCCOCCOCCOCCOCCOCCOCCOCCOCCOCCOCCOCCOCCOCCOCCn5nnc6c5CCC5C(CC6)C5COC(=O)N[C@@H](C)C(=O)N[C@H]5CSCCC(=O)N6CN7CN(C6)C(=O)CCSC[C@H](NC(=O)[C@H](Cc6ccc(O)cc6)NC(=O)[C@H](CCC(N)=O)NC(=O)CNC(=O)[C@H](CCC(=O)O)NC(=O)[C@H](CCC(=O)O)NC(=O)[C@H]([C@@H](C)CC)NC5=O)C(=O)N[C@@H](Cc5ccccc5)C(=O)N[C@@H](C)C(=O)N[C@@H](CC(=O)O)C(=O)N5CCC[C@H]5C(=O)N[C@@H](Cc5ccc(O)cc5)C(=O)N[C@@H](CCCC)C(=O)N[C@H](C(=O)N[C@@H](C)C(N)=O)CSCCC7=O)c4CCC31)C(=O)N[C@@H]([C@@H](C)CC)C(=O)N[C@@H](CCC(=O)O)C(=O)N[C@@H](CCC(=O)O)C(=O)NCC(=O)N[C@@H](CCC(N)=O)C(=O)N[C@@H](Cc1ccc(O)cc1)C(=O)N2", "note": "(stereo partly drawn) [BCY8149]", "values": [{"measurement": "Average Fold EC50 Improvement relative to CD137L", "value": 140.06}, {"measurement": "Average Relative Fold Induction relative to CD137L", "value": 0.93}]}, {"compound": "CD137L: the natural ligand (CD137L) for activation of CD137", "values": [{"measurement": "EC50", "setting": "read-out: Average EC50, reference substance of Table 4A / 4B", "value": 14.2, "unit": "nM"}, {"measurement": "Average fold induction", "setting": "reference substance of Table 4A / 4B", "value": "**Average fold induction for CD137L = 4.0"}]}, {"compound": "I: Ac-ACIEEGQYCKADPY[Nle]CA-NH2 / II: Ac-ACIEEGQYCKADPY[Nle]CA-NH2 / III: Ac-ACIEEGQYCKADPY[Nle]CA-NH2 (linker I:2-I:9-I:16, II:2-II:9-II:16, III:2-III:9-III:16 via TATA; linker I:10-II:10-III:10 via X2) [BCY8146]", "values": [{"measurement": "Average Fold EC50 Improvement relative to CD137L", "value": 5.11}, {"measurement": "Average Relative Fold Induction relative to CD137L", "value": 0.83}]}, {"compound": "ACIEEGQYCFADPYMCA [BCY592, reference compound]", "values": [{"measurement": "CD137 agonism / activation in reporter cells (in words)", "setting": "FIGS. 1 to 3 and 15", "value": "no detectable activity"}]}, {"compound": "CCCC[C@@H]1NC(=O)[C@H](Cc2ccc(O)cc2)NC(=O)[C@@H]2CCCN2C(=O)[C@H](CC(=O)O)NC(=O)[C@H](C)NC(=O)[C@H](Cc2ccccc2)NC(=O)[C@@H]2CSCCC(=O)N3CN(CN(C3)C(=O)CCSC[C@@H](C(=O)N[C@@H](C)C(N)=O)NC1=O)C(=O)CCSC[C@H](NC(=O)[C@H](C)NC(C)=O)C(=O)N[C@@H]([C@@H](C)CC)C(=O)N[C@@H](CCC(=O)O)C(=O)N[C@@H](CCC(=O)O)C(=O)N[C@H](CCCCNC(=O)OCC1C3CCc4nnn(CCOCCOCCOCCOCCOCCOCCOCCOCCOCCOCCNC(=O)CCOCC(COCCC(=O)NCCOCCOCCOCCOCCOCCOCCOCCOCCOCCOCCn5nnc6c5CCC5C(CC6)C5COC(=O)NCCCC[C@H]5NC(=O)[C@H](CCC(=O)O)NC(=O)[C@H](CCC(=O)O)NC(=O)[C@H]([C@@H](C)CC)NC(=O)[C@@H](NC(=O)[C@H](C)NC(C)=O)CSCCC(=O)N6CN7CN(C6)C(=O)CCSC[C@H](NC(=O)[C@H](Cc6ccc(O)cc6)NC(=O)[C@H](CCC(N)=O)NC5=O)C(=O)N[C@@H](Cc5ccccc5)C(=O)N[C@@H](C)C(=O)N[C@@H](CC(=O)O)C(=O)N5CCC[C@H]5C(=O)N[C@@H](Cc5ccc(O)cc5)C(=O)N[C@@H](CCCC)C(=O)N[C@H](C(=O)N[C@@H](C)C(N)=O)CSCCC7=O)(COCCC(=O)NCCOCCOCCOCCOCCOCCOCCOCCOCCOCCOCCn5nnc6c5CCC5C(CC6)C5COC(=O)NCCCC[C@H]5NC(=O)[C@H](CCC(=O)O)NC(=O)[C@H](CCC(=O)O)NC(=O)[C@H]([C@@H](C)CC)NC(=O)[C@@H](NC(=O)[C@H](C)NC(C)=O)CSCCC(=O)N6CN7CN(C6)C(=O)CCSC[C@H](NC(=O)[C@H](Cc6ccc(O)cc6)NC(=O)[C@H](CCC(N)=O)NC5=O)C(=O)N[C@@H](Cc5ccccc5)C(=O)N[C@@H](C)C(=O)N[C@@H](CC(=O)O)C(=O)N5CCC[C@H]5C(=O)N[C@@H](Cc5ccc(O)cc5)C(=O)N[C@@H](CCCC)C(=O)N[C@H](C(=O)N[C@@H](C)C(N)=O)CSCCC7=O)COCCC(=O)NCCOCCOCCOCCOCCOCCOCCOCCOCCOCCOCCn5nnc6c5CCC5C(CC6)C5COC(=O)NCCCC[C@H]5NC(=O)[C@H](CCC(=O)O)NC(=O)[C@H](CCC(=O)O)NC(=O)[C@H]([C@@H](C)CC)NC(=O)[C@@H](NC(=O)[C@H](C)NC(C)=O)CSCCC(=O)N6CN7CN(C6)C(=O)CCSC[C@H](NC(=O)[C@H](Cc6ccc(O)cc6)NC(=O)[C@H](CCC(N)=O)NC5=O)C(=O)N[C@@H](Cc5ccccc5)C(=O)N[C@@H](C)C(=O)N[C@@H](CC(=O)O)C(=O)N5CCC[C@H]5C(=O)N[C@@H](Cc5ccc(O)cc5)C(=O)N[C@@H](CCCC)C(=O)N[C@H](C(=O)N[C@@H](C)C(N)=O)CSCCC7=O)c4CCC31)C(=O)N[C@@H](CCC(N)=O)C(=O)N[C@@H](Cc1ccc(O)cc1)C(=O)N2", "note": "(stereo partly drawn) [BCY8104]", "values": [{"measurement": "Average Fold EC50 Improvement relative to CD137L", "value": 103.27}, {"measurement": "Average Relative Fold Induction relative to CD137L", "value": 1.65}]}]}
